In patent US8697869B2, “3-(heteroaryl-amino)-1,2,3,4-tetrahydro-9H-carbazole derivatives and their use as prostaglandin D2 receptor modulators” (Actelion Pharmaceuticals Ltd., priority 2010, dated 2014):

Legend:
hCRTH2 receptor [1] = biological target: T1, hCRTH2 receptor (Homo sapiens (Human), UniProt Q9Y5Y4); assay: hCRTH2 receptor membranes radioligand displacement assay (3H-PGD2); conditions: 3H-PGD2 2.5 nM, HEK293-hCRTH2 membranes, Binding-Buffer with 0.1% BSA
Description: Biological Assays: Preparation of hCRTH2 Receptor Membranes and Radioligand Displacement Assay:
(§1) First, recombinant HEK293-hCRTH2 cells were detached from culture plates into 5 ml buffer A/plate (Buffer A: 5 mM Tris, 1 mM MgCl2-6H2O pH=7.4) using a rubber policeman. Cells were then transferred into centrifugation tubes and centrifuged for 5 min at 400 g. The cell pellet was resuspended in the same buffer and tubes were frozen at −80° C. Cells were thawed and membrane fragments were generated by homogenization using a polytron homogenizer (30 seconds). The membrane fragments were then centrifuged at 3000 g for 20 minutes and resuspended in buffer C (Buffer C: 75 mM Tris, 25 mM MgCl2, 250 mM Saccharose pH 7.4). Aliquots of membrane fragements were stored at −20° C.
(§2) Binding assay was performed in a final assay volume of 250 μl. First, 25 μl of test compound, previously diluted in Binding-Buffer (Binding-Buffer: 50 mM Tris-Base, 100 mM NaCl, 1 mM EDTA, 0.1% BSA (protease free), 0.01% NaN3, 10 mM MnCl2 pH 7.0) was placed into each well. After addition of 75 μl Binding-Buffer, 50 μl of the radioligand ^3H-PGD2 (at 2.5 nM (220.000 dpm/well) from ANAWA ART0662) was added to each well. Binding assay was started by addition of 100 μl CRTH2 membrane fragments, reaching a final concentration of 20 μg/well. For non-specific binding, PGD2 was added to the reaction mixture to […] final concentration. This assay mix was incubated for 90 minutes at room temperature and then filtered through a GF/C filter 96-well plate which was pre-soaked for 3 hours in 0.5% polyethyleneimine (PEI). The filter-wells were washed three times with ice cold Binding-Buffer. Then, 40 μl of Microscint-40 (Packard) was added to each well and the retained radioactivity quantified in a Topcount (Packard).

hCRTH2 receptor [2] = biological target: T1, hCRTH2 receptor; assay: Radioligand displacement assay in presence of human serum albumin (HSA); conditions: 3H-PGD2 2.5 nM, Binding-Buffer with 0.5% HSA instead of 0.1% BSA
Description: as §1, §2
Radioligand Displacement Assay-Human Serum Albumin (HSA):
Radioligand displacement assay in presence of human serum albumin (HSA) was performed as described above, with following modifications. Binding-Buffer-HSA: Binding-buffer+0.5% Sigma Albumin from Human serum A1887 (instead of 0.1% BSA). A volume of 25 μl test compound, previously diluted in Binding-Buffer-HSA was placed into each well. After addition of 75 μl Binding-Buffer-HSA, 50 μl of ^3H-PGD2 (at 2.5 nM (220.000 dpm/well) from ANAWA ART0662) was added to each well. Remaining protocol was identical as described above.

eosinophils = assay: Eosinophil shape change assay with human plasma; assay type: cell-based; conditions: human polymorphonuclear cells, 50% human plasma, activated with 100 nM PGD2
Description: After obtaining informed consent, blood samples were drawn by venipuncture according to the protocol approved by the ethics committee of Basel, Switzerland. Polymorphonuclear leukocytes (containing eosinophils, basophils and neutrophils) were isolated using the Polymorphprep™ method (Axis-Shield). In brief, anticoagulated whole blood was layered onto a Polymorphprep gradient (density 1.113 g/ml) and centrifuged at 500 g for 30 min. The polymorphonuclear cell fraction was harvested and depleted for erythrocytes by hypotonic saline lysis.
The polymorphonuclear cells were resuspended in assay buffer (1×PBS with Ca^2+/Mg^2+ supplemented with 0.1% BSA, 10 mM HEPES, and 10 mM Glucose, pH 7.4) at 5×10^6 cells/ml and stained with anti-CD49d-APC ((APC=Allophycocyanin) for 1 hour at RT. Test compounds, at various concentrations, were preincubated 10 min in human plasma (anticoagulated with a thrombin inhibitor). Then, human plasma was added to the polymorphonuclear cells to 50% of final assay volume with polymorphonuclear cells at 4×10^6 cells/rd. After incubation for 10 minutes at 37° C., the polymorphonuclear cells were activated for 5 min at 37° C. by addition of PGD2 at 100 nM final concentration. Activation was stopped by addition of 0.5 ml paraformaldehyde (1%).
Immediately after fixation with paraformaldehyde, the samples were analyzed by FACSCanto flow cytometer (BD Biosciences) and target cells were identified by their forward-scatter (FSC) and side-scatter (SSC) characteristics. Eosinophils were identified by the anti-CD49d-APC signal and their characteristic side-scatter (SSC) profile. Shape change responses, indicative of eosinophil activation, were quantified as the percent of cells with an increased forward-scatter.

T1 sequence (Q9Y5Y4 whole entry): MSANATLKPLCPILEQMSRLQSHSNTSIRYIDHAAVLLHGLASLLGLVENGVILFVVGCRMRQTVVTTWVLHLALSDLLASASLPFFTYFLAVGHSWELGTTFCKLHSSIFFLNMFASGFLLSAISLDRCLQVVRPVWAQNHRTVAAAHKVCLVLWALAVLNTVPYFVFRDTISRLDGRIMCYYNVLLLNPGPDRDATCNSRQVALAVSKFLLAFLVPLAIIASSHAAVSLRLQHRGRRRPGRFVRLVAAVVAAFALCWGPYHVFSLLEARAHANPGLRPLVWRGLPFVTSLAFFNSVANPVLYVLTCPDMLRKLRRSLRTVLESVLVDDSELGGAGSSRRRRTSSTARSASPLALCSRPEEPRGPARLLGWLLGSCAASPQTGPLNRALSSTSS

SMILES | IC50 (hCRTH2 receptor [1]) | IC50 (hCRTH2 receptor [2]) | IC50 (eosinophils; Eosinophil) | IC50 (eosinophils)
O=C(O)Cn1c2c(c3cc(F)ccc31)C[C@@H](Nc1ncc(F)cn1)CC2 [Example 1, (3S)-2-(6-fluoro-3-((5-fluoropyrimidin-2-yl)amino)-3,4-dihydro-1H-carbazol-9-(2H)-yl)acetic acid] | 16 nM | 20 nM | – | 21 nM
O=C(O)Cn1c2c(c3cc(F)ccc31)C[C@@H](N(CC1CC1)c1ncc(Cl)cn1)CC2 [Example 27, (3S)-2-(3-((5-chloropyrimidin-2-yl)(cyclopropylmethyl)amino)-6-fluoro-3,4-dihydro-1H-carbazol-9(2H)-yl)acetic acid] | 1.7 nM | 6 nM | 14 nM | –
COCCN(c1ncc(Cl)cn1)[C@H]1CCc2c(c3cc(F)ccc3n2CC(=O)O)C1 [Example 34, (3S)-2-(3-((5-chloropyrimidin-2-yl)(2-methoxyethyl)amino)-6-fluoro-3,4-dihydro-1H-carbazol-9(2H)-yl)acetic acid] | 5.9 nM | 14 nM | 8 nM | –
CCN(c1ncc(Cl)cn1)[C@H]1CCc2c(c3cc(F)ccc3n2CC(=O)O)C1 [Example 24, (3S)-2-(3-((5-chloropyrimidin-2-yl)(ethyl)amino)-6-fluoro-3,4-dihydro-1H-carbazol-9(2H)-yl)acetic acid] | 1.7 nM | 19 nM | 37 nM | –
CCCN(c1ncc(Cl)cn1)[C@H]1CCc2c(c3cc(F)ccc3n2CC(=O)O)C1 [Example 25, (3S)-2-(3-((5-chloropyrimidin-2-yl)(propyl)amino)-6-fluoro-3,4-dihydro-1H-carbazol-9(2H)-yl)acetic acid] | 3.9 nM | 17 nM | 13 nM | –
Cc1ccc2c(c1)c1c(n2CC(=O)O)CCC(N(C)c2ncc(Cl)cn2)C1 (stereo not drawn) [Example 55, 2-(3-((5-chloropyrimidin-2-yl)(methyl)amino)-6-methyl-3,4-dihydro-1H-carbazol-9(2H)-yl)acetic acid] | 5.5 nM | 40 nM | – | –
O=C(O)Cn1c2c(c3cc(F)ccc31)C[C@@H](N(CC(F)F)c1ncc(Cl)cn1)CC2 [Example 41, (3S)-2-(3-((5-chloropyrimidin-2-yl)(2,2-difluoroethyl)amino)-6-fluoro-3,4-dihydro-1H-carbazol-9(2H)-yl)acetic acid] | 15 nM | 68 nM | – | –
COc1cnc(N(C)[C@H]2CCc3c(c4cc(F)ccc4n3CC(=O)O)C2)nc1 [Example 31, (3S)-2-(6-fluoro-3-((5-methoxypyrimidin-2-yl)(methyl)amino)-3,4-dihydro-1H-carbazol-9(2H)-yl)acetic acid] | 7.2 nM | 43 nM | – | –
CN(c1ncc(Cl)cn1)C1CCc2c(c3cc(OC(F)(F)F)ccc3n2CC(=O)O)C1 (stereo not drawn) [Example 56, 2-(3-((5-chloropyrimidin-2-yl)(methyl)amino)-6-(trifluoromethoxy)-3,4-dihydro-1H-carbazol-9(2H)-yl)acetic acid] | 8.8 nM | 303 nM | – | –
CN(c1nc(C(F)(F)F)cs1)C1CCc2c(c3cc(F)ccc3n2CC(=O)O)C1 (stereo not drawn) [Example 47, 2-(6-fluoro-3-(methyl(4-(trifluoromethyl)thiazol-2-yl)amino)-3,4-dihydro-1H-carbazol-9(2H)-yl)acetic acid] | 14 nM | 402 nM | – | –

Next, values leading:

IC50 (hCRTH2 receptor [1]) | IC50 (hCRTH2 receptor [2]) | IC50 (eosinophils; Eosinophil) | IC50 (eosinophils) | SMILES
1.4 nM | 28 nM | 6 nM | – | CN(c1nc2cc(Cl)ccc2o1)[C@H]1CCc2c(c3cc(F)ccc3n2CC(=O)O)C1 [Example 18, (3S)-2-(3-((5-chlorobenzo[d]oxazol-2-yl)(methyl)amino)-6-fluoro-3,4-dihydro-1H-carbazol-9(2H)-yl)acetic acid]
2 nM | 21 nM | 75 nM | – | CN(c1nc2ccc(Cl)cc2o1)[C@H]1CCc2c(c3cc(F)ccc3n2CC(=O)O)C1 [Example 40, (3S)-2-(6-fluoro-3-((6-chlorobenzo[d]oxazol-2-yl)(methyl)amino)-3,4-dihydro-1H-carbazol-9(2H)-yl)acetic acid]
9.7 nM | 25 nM | 414 nM | – | Cc1csc(N(C)C2CCc3c(c4cc(F)ccc4n3CC(=O)O)C2)n1 (stereo not drawn) [Example 45, 2-(6-fluoro-3-(methyl(4-methylthiazol-2-yl)amino)-3,4-dihydro-1H-carbazol-9(2H)-yl)acetic acid]
4.6 nM | 12 nM | 6 nM | – | CN(c1nc2ccc(F)cc2o1)[C@H]1CCc2c(c3cc(F)ccc3n2CC(=O)O)C1 [Example 43, (3S)-2-(6-fluoro-3-((6-fluorobenzo[d]oxazol-2-yl)(methyl)amino)-3,4-dihydro-1H-carbazol-9(2H)-yl)acetic acid]
12 nM | 22 nM | 25 nM | – | CN(c1ncc2ccccc2n1)[C@H]1CCc2c(c3cc(F)ccc3n2CC(=O)O)C1 [Example 28, (3S)-2-(6-fluoro-3-(methyl(quinazolin-2-yl)amino)-3,4-dihydro-1H-carbazol-9(2H)-yl)acetic acid]
2.7 nM | 11 nM | 15 nM | – | CN(c1ncc(Cl)cn1)[C@H]1CCc2c(c3cc(F)ccc3n2CC(=O)O)C1 [Example 9, (3S)-2-(3-((5-chloropyrimidin-2-yl)(methyl)amino)-6-fluoro-3,4-dihydro-1H-carbazol-9(2H)-yl)acetic acid]
4.1 nM | 7 nM | 4 nM | – | CN(c1nc2cc(F)ccc2o1)[C@H]1CCc2c(c3cc(F)ccc3n2CC(=O)O)C1 [Example 29, (3S)-2-(6-fluoro-3-((5-fluorobenzo[d]oxazol-2-yl)(methyl)amino)-3,4-dihydro-1H-carbazol-9(2H)-yl)acetic acid]
2.5 nM | 7 nM | 8 nM | – | CN(c1ncc(F)cn1)[C@H]1CCc2c(c3cc(F)ccc3n2CC(=O)O)C1 [Example 7, (3S)-2-(6-fluoro-3-((5-fluoropyrimidin-2-yl)(methyl)amino)-3,4-dihydro-1H-carbazol-9(2H)-yl)acetic acid]
16 nM | 380 nM | – | – | CN(c1nc(C(F)(F)F)nc2ccccc12)[C@H]1CCc2c(c3cc(F)ccc3n2CC(=O)O)C1 [Example 22, (3S)-2-(6-fluoro-3-(methyl(2-(trifluoromethyl)quinazolin-4-yl)amino)-3,4-dihydro-1H-carbazol-9(2H)-yl)acetic acid]
7.3 nM | 17 nM | 31 nM | – | CN(c1nc2ccccc2o1)[C@H]1CCc2c(c3cc(F)ccc3n2CC(=O)O)C1 [Example 19, (3S)-2-(3-(benzo[d]oxazol-2-yl(methyl)amino)-6-fluoro-3,4-dihydro-1H-carbazol-9(2H)-yl)acetic acid]
6.7 nM | 20 nM | 33 nM | – | CN(c1nc2ccc(Cl)cc2s1)[C@H]1CCc2c(c3cc(F)ccc3n2CC(=O)O)C1 [Example 32, (3S)-2-(3-((6-chlorobenzo[d]thiazol-2-yl)(methyl)amino)-6-fluoro-3,4-dihydro-1H-carbazol-9(2H)-yl)acetic acid]
